A short description of series [1]: etching rate (dissolution rate) of a deposited layer in the IPA/water mixed solvent. The series is classed as physicochemical. The conditions noted are these: IPA 60 wt %; for etching rate: layer of the compound, polar solvent: IPA/water mixed solvent. From the text:
In the present invention, a larger etching rate means a higher dissolution rate. In addition, a larger etching rate means a higher solubility of a layer having a material of interest in the solvent (polar solvent).
FIG. 3 is a graph illustrating thickness changes in the compound 1 and the compound A2 over an etching time. Here, FIG. 3 illustrates the results of the etching of the respective layers when a mixed solvent obtained by mixing isopropyl alcohol (IPA) and water so that IPA may account for 60 wt % (hereinafter, sometimes referred to as “IPA/water mixed solvent”) is used as a polar solvent.
On the other hand, the thickness of a layer (layer B) formed of the compound A2 as a heterocyclic compound reduces over time. When the etching rates of the respective layers are calculated with their etching conditions made identical to each other, the etching rate of the layer A is 0.008 nm/sec but the etching rate of the layer B is 0.87 nm/sec, that is, a ratio of the latter to the former is about 100.
Here, a ratio (n) between the etching rates of the uppermost layer (layer A) of the organic compound layer and the lowermost layer (layer B) of the release layer by the polar solvent used upon removal of the release layer under the same temperature conditions can be represented like the following equation.
Next, the photosensitive resin layer 41 was removed by performing dry etching with oxygen as a reactant gas under the conditions of a flow rate of 20 sccm, a pressure of 8 Pa, and an output of 150 W (FIG. 2L). Next, the release layer 30 was removed with a mixed solvent obtained by mixing water and IPA so that an IPA concentration was 60 wt % (FIG. 2M). It should be noted that as the etching rate of the compound (phenanthroline derivative represented by the formula (2)) constituting the release layer 30 in this example was 0.9 nm/sec, the release layer 30 was removed through immersion in the mixed solvent for 600 seconds. Next, vacuum heating was performed at 80° C. so that the solvent remaining on the organic compound layer was removed. It should be noted that the etching rate of the compound represented by the formula (1) serving as the uppermost layer of the organic compound layer placed in each sub-pixel for the polar solvent used for removing the release layer is about 0.0045 nm/sec, which is sufficiently small as compared with the etching rate of the release layer 30.

The nature of series [2]: solubility in the IPA/water mixed solvent (FIG. 4). It counts as physicochemical. The conditions noted are these: IPA/water mixed solvent having an IPA concentration of 80 wt %. The source says: The solubility of a compound as a constituent material for each layer in the IPA/water mixed solvent varies depending on the weight ratio of IPA in the mixed solvent. FIG. 4 is a graph illustrating the solubilities of the compound 1 (condensed polycyclic hydrocarbon compound) and the compound A2 (heterocyclic compound) in the IPA/water mixed solvent (polar solvent). Here, in the graph of FIG. 4, the axis of abscissa indicates the weight percent concentration of IPA in the IPA/water mixed solvent, and the axis of ordinate indicates the amount of the condensed polycyclic hydrocarbon compound or heterocyclic compound to dissolve in 1 g of the solvent.

For the compound `c1ccc(-n2c(-c3cc(-c4nc5ccccc5n4-c4ccccc4)cc(-c4nc5ccccc5n4-c4ccccc4)c3)nc3ccccc32)cc1` [compound A7], the etching rate in series [1] turned out to be 1.6 nm/s. On the same count and under the same terms, in the case of `c1ccc(-c2cc(-c3ccccc3)cc(-c3cccc(-c4cccc(-c5ccc6c7ccccc7c7ccccc7c6c5)c4)c3)c2)cc1` [compound B1] it was 1.3 nm/s.

On to `CC1(C)c2cc(-c3ccc4ccc5cccc6ccc3c4c56)ccc2-c2ccc(-c3ccc4ccc5cccc6ccc3c4c56)cc21` [compound 1], for which the etching rate in series [1] is 0.008 nm/s; in series [1] (listed as formula (1)), “about 0.0045 nm/sec”. In addition, in series [2], the “amount to dissolve in 1 g of the solvent” value worked out at 5 µg. The compound `O=S(=O)(Oc1ccc2cc(-c3ccc4ccccc4c3)ccc2c1)C(F)(F)F` [compound D6] registered an etching rate in series [1] of 2.5 nm/s. Consider `O=C1c2ccccc2OC2C=CC(c3cccc(-c4cccc(-c5cc(-c6cccc(-c7ccccc7)c6)cc(-c6cccc(-c7ccccc7)c6)c5)c4)c3)=CC12` (stereo not drawn) [compound Cl], for which the etching rate in series [1] was 1.5 nm/s. As for `CC1(C)c2ccccc2-c2ccc(-c3ccc4ccc5ccc(-c6ccc7c(c6)C(C)(C)c6ccccc6-7)nc5c4n3)cc21` [compound A2], in series [1] (compound A2 layer versus compound 1 layer, IPA/water mixed solvent, identical etching conditions), the “etching rate ratio (n) of layer B (release layer) to layer A (uppermost organic compound layer)” value is listed as “about 100”. Further, the etching rate came to 0.87 nm/s in series [1] and 0.9 nm/s in series [1] (listed as formula (2)). Moreover, in series [2], the “amount to dissolve in 1 g of the solvent” value is 73 µg. `CC(C)(C)c1cc2ccc3ccc(B4OC(C)(C)C(C)(C)O4)c4ccc(c1)c2c34` [compound D8] displayed an etching rate in series [1] of 3.0 nm/s.

(Values after patent US20120274239A1, “METHOD OF MANUFACTURING ORGANIC ELECTROLUMINESCENCE DISPLAY DEVICE AND ELECTRONIC EQUIPMENT INCLUDING ORGANIC ELECTROLUMINESCENCE DISPLAY DEVICE MANUFACTURED BY THE MANUFACTURING METHOD” (CANON KABUSHIKI KAISHA, priority 2011, published 2012).)
